The text below walks through data of patent US9273084B2, “Moenomycin analogs, methods of synthesis, and uses thereof” (priority 2012, dated 2016).

Where a name gives a salt, the structure may show the parent alone. Where only a bound is given, the exact number is not on record here.

One may read the half-life as the time in which the quantity being followed falls by half.

One data set concerns E. coli MG1655. Kind of data set: MIC assay, 96 well broth dilution with MTT staining. It is filed as cell-based. The settings on record: LB, 35-37° C., 20 h. More on the design: unit not given beside the values. How it is done: (§1) A 96 well plate with 100 μL test medium in all wells was prepared by handheld multipipettor. A stock solution of the antibiotic or compound in DMSO (0.05˜10 mg/mL, 5 μL) and the same medium (95 μL) were put together into column one, where the compound concentration doubled the highest one to be tested. Two columns were necessary for each compound to check the reproducibility. The compound was diluted by adding 100 μL from column one to column two with a 50% volume mix done three times; diluting serially across the plate was continued.
(§2) The day before the assay was scheduled to be run, strains were suspended in the test media (Brain Heart Infusion (BHI) containing 0.1% casamino acids for S. aureus, S. epidermidis, and E. faecalis, Trypticase Soy Broth (TSB) containing 5% sheep blood for S. pneumoniae, and Lysogeny Broth (LB) for E. coli) and incubated overnight at 35-37° C. The suspension was diluted with the same media to 1%, 100 μL of which was added to each well of the MIC plate. The MIC plate was incubated at 35-37° C. for 20 h. A thiazolyl blue tetrazolium bromide (MTT) solution (1 mg/mL-water, 50 μL) was added into each well and the resulting MIC plate was incubated at 35-37° C. for a few hours to stain wells in which cell proliferated. Growth is also visible as any turbidity in wells.
A general note: Broth dilution looks for growth in wells or tubes with falling amounts of substance.

The subject of a further data set is E. faecalis 29212. The description is as above. To be noted: BHI containing 0.1% casamino acids, 35-37° C., 20 h. It is filed as cell-based. More on the design: unit not given beside the values. How it is done:
as §1, §2

In another data set the test system is E. faecalis 33186. The data set is described as above. It is filed as cell-based. Set-up: unit not given beside the values. The settings on record: BHI containing 0.1% casamino acids, 35-37° C., 20 h. The method, then:
as §1, §2

The next data set has as its system S. aureus 13709. The description is as above. It is filed as cell-based. The settings on record: BHI containing 0.1% casamino acids, 35-37° C., 20 h. Set-up: unit not given beside the values. How it is done:
as §1, §2

The subject of a further data set is S. aureus 25923. The description is as above. It is filed as cell-based. Set-up: unit not given beside the values. To be noted: S. aureus 25923 (second strain line); BHI containing 0.1% casamino acids; 35-37° C., 20 h. The method, then:
as §1, §2

For the next data set, the system named is S. epidermidis 1228. The data set is described as above. It is filed as cell-based. Set-up: unit not given beside the values. To be noted: BHI containing 0.1% casamino acids, 35-37° C., 20 h. The method, then:
as §1, §2

A further data set concerns S. epidermidis 700562. Described as above. It is filed as cell-based. More on the design: unit not given beside the values. To be noted: BHI containing 0.1% casamino acids, 35-37° C., 20 h. The method, then: as §1, §2
Another data set has as its system S. pneumoniae #1629. The description is as above. It is filed as cell-based. To be noted: TSB containing 5% sheep blood, 35-37° C., 20 h. The method, then: as §1, §2
A further data set relates to S. pneumoniae 6303. The data set is described as above. It is filed as cell-based. To be noted: TSB containing 5% sheep blood, 35-37° C., 20 h. How it is done:
as §1, §2

For the next data set, the system named is E. coli NR698. It is filed as cell-based. Set-up: unit not given beside the values. To be noted: LB, 35-37° C., 20 h. The method, then: as §1, §2
Data set [1] is described as follows: Pharmacokinetics following IV and SC administration. To be noted: for half-life: NCA analysis. It is filed as in vivo. How it is done:
Curtailing the tail portion of Moenomycin A (MmA) led to shorter half-life. […] The clearance following IV administration was very low leading higher exposure (3 mL/hr/kg) and volume of distribution (Vss) was 0.5 L/kg.

The next data set deals with Gram-positive organisms. The settings on record: against Gram-positive organisms; cited from earlier work.
[2] abbreviates: S. aureus 13709 (first strain line).
Where [3] appears, read: S. aureus 13709 (third strain line).

As for `CC(=O)NC1C(OC2C(COC3OC(CO)C(O)C(O)C3O)OC(OC3C(OP(=O)(O)OCC(OCc4cccc(OCc5cccc(-c6cccc(OCc7ccccc7)c6)c5)c4)C(=O)O)OC(C(N)=O)C(C)(O)C3OC(N)=O)C(NC(C)=O)C2O)OC(C)C(OC2OC(C(=O)NC3=C(O)CCC3=O)C(O)C(O)C2O)C1O.N` [1i, N1-[(2-Hydroxy-5-oxo-cyclopenten-1-yl)-(5S)-β-D-galactopyranuronamide]-(1→4)-2-acetamide-2,6-dideoxy-β-D-gluopyranosyl-(1→4)-[β-D-glucopyranosyl-(1→6)]-2-acetamido-2-deoxy-β-D-glucopyranosyl)-(1→2)-3-O-carbamoyl-1-O—{[(R)-2-carboxy-2-(3-((3′-(benzyloxy)-[1,1′-biphenyl]-3-yl)methoxy)phenylmethan-1-yloxy)ethoxy]hydroxyphosphoryl}-4-C-methyl-α-D-glucopyranuronamide], the MIC in the data set with E. coli MG1655 was over 250; in the data set with E. faecalis 29212, 16; in the data set on E. faecalis 33186 it was 32; against S. aureus 13709 (setting [2]) it was 7.8; in the data set on S. aureus 13709 (setting [3]), 7.8; in the data set on S. aureus 25923, 7.8. Also, the MIC is given as 3.9 in the data set on S. epidermidis 1228; 7.8 with S. epidermidis 700562; 7.8 in the data set with S. pneumoniae #1629; 3.9 in the data set with S. pneumoniae 6303; 0.49 against E. coli NR698.
For the molecule `CC(=O)NC1C(OC2C(COC3OC(CO)C(O)C(O)C3O)OC(OC3C(OP(=O)(O)OCC(OCc4cccc(OCc5cccc(-c6cccc(C)c6)c5)c4)C(=O)O)OC(C(N)=O)C(C)(O)C3OC(N)=O)C(NC(C)=O)C2O)OC(C)C(OC2OC(C(=O)NC3=C(O)CCC3=O)C(O)C(O)C2O)C1O.N` [1j, N1-[(2-Hydroxy-5-oxo-cyclopenten-1-yl)-(5S)-β-D-galactopyranuronamide]-(1→4)-2-acetamide-2,6-dideoxy-β-D-gluopyranosyl-(1→4)-[β-D-glucopyranosyl-(1→6)]-2-acetamido-2-deoxy-β-D-glucopyranosyl)-(1→2)-3-O-carbamoyl-1-O—{[(R)-2-carboxy-2-(3-((3′-methyl-[1,1′-biphenyl]-3-yl)methoxy)phenylmethan-1-yloxy)ethoxy]hydroxyphosphoryl}-4-C-methyl-α-D-glucopyranuronamide], the MIC is over 250 in the data set on E. coli MG1655; >250 >250 in the data set with E. faecalis 29212; >250 >250 against E. faecalis 33186; >250 >250 >250 with S. aureus 13709 (setting [2]); >250 >250 >250 against S. aureus 13709 (setting [3]); >250 >250 >250 in the data set on S. aureus 25923. The MIC in the data set with S. epidermidis 1228 was 125; with S. epidermidis 700562, over 250; in the data set on S. pneumoniae #1629, 16; in the data set with S. pneumoniae 6303, 16; with E. coli NR698, 0.98.
In the case of `C=C(C/C=C(\C)CCC=C(C)C)CCC(C)(C)/C=C/CC/C(C)=C/CO[C@@H](COP(=O)(O)O[C@H]1O[C@H](C(N)=O)[C@@](C)(O)[C@H](OC(N)=O)[C@H]1O[C@@H]1O[C@H](CO[C@@H]2O[C@H](CO)[C@@H](O)[C@H](O)[C@H]2O)[C@@H](O[C@@H]2O[C@H](C)[C@@H](O[C@@H]3O[C@H](C(=O)NC4=C(O)CCC4=O)[C@H](O)[C@H](O)[C@H]3O)[C@H](O)[C@H]2NC(C)=O)[C@H](O)[C@H]1NC(C)=O)C(=O)O` [Moenomycin A], the MIC against E. coli MG1655 was determined as 31; against S. aureus 13709 (setting [2]) it was 0.16; in the data set with S. aureus 13709 (setting [3]), 0.078; in the data set with S. aureus 25923, 0.16; in the data set on E. coli NR698, 0.0098. In data set [1] (IV administration (2 mpk)), this molecule had a clearance of 3 mL/h/kg. Further, the “volume of distribution (Vss)” value in data set [1] (IV administration (2 mpk)) is reported as 0.5 L/kg. In addition, the half-life came to 209 h in data set [1] (IV administration (2 mpk)) and 180 h in [1] (SC administration (10 mpk)). Also, in [1] (SC (10 mpk) vs IV (2 mpk)), the “% SC bioavailability” value worked out at 89%. Further, the systemic exposure entry in [1] (following IV (2 mpk) and SC (10 mpk) administration) is on record as “significant systemic exposure”. In addition, in the data set with Gram-positive organisms, the “potency compared with vancomycin” value is listed as 10-1000 times.
With `CN[C@H](CC(C)C)C(=O)N[C@H]1C(=O)N[C@@H](CC(N)=O)C(=O)N[C@H]2C(=O)N[C@H]3C(=O)N[C@H](C(=O)N[C@H](C(=O)O)c4cc(O)cc(O)c4-c4cc3ccc4O)[C@H](O)c3ccc(c(Cl)c3)Oc3cc2cc(c3O[C@@H]2O[C@H](CO)[C@@H](O)[C@H](O)[C@H]2O[C@H]2C[C@](C)(N)[C@H](O)[C@H](C)O2)Oc2ccc(cc2Cl)[C@H]1O` [Vancomycin•HCl, reference compound], the MIC turned out to be 250 against E. coli MG1655; 3.9 against E. faecalis 29212; 2.0 with E. faecalis 33186; 3.9 against S. aureus 13709 (setting [2]); 2.0 against S. aureus 13709 (setting [3]); 3.9 with S. aureus 25923. The MIC against S. epidermidis 1228 amounted to 2.0; in the data set on S. epidermidis 700562 it was 3.9; in the data set with S. pneumoniae #1629, 0.49; with S. pneumoniae 6303, 0.49; in the data set with E. coli NR698, 0.49.
